In publication PMC9656205, “In Vitro/In Vivo Translation of Synergistic Combination of MDM2 and MEK Inhibitors in Melanoma Using PBPK/PD Modelling: Part I” (International Journal of Molecular Sciences, 2022):
Where two headings read alike, the source gives them in different places.

Experiments:
[1] = system: A375 cells; experiment: RealTime-Glo MT cell viability assay, cytotoxicity and drug interaction analysis; type: cell-based; conditions: Homo sapiens, A-375, n = 3; for IC50: A375 cells, 72 h incubation, read-out: RealTime-Glo IC50 ± SD
Procedure: (§1) Inhibition of tumour cell viability after single and combination drug treatment was measured with the use of MTS assay (CellTiter 96® AQueous Non-Radioactive Cell Proliferation Assay) and RealTime-Glo assay (RealTime-Glo™ MT Cell Viability Assay) in A375 cell line using standard manufacturer protocols. […] Drug combinations were tested in the matrix layout with the increasing concentrations of both drugs (please see Figures S1 and S2). […] Several independent assay repetitions were performed for MTS (n = 4) and RealTime-Glo assays (n = 3).
(§2) Drug combination interaction analysis was performed on in vitro cytotoxicity data from MTS and RealTime-Glo assays. […] For Synergyfinder analysis parameters, see Table S4. For a more detailed description of all Synergyfinder functions, please see its documentation and user instructions.

[2] = system: A375 melanoma tumour model; experiment: In vivo efficacy, tumour growth inhibition in A375 xenograft; design: species or system CD-1 nude mice; conditions: n = 6
Procedure: The studied compounds, namely HDM201 and Trametinib, were tested separately and in combination as a therapy against an A375 melanoma tumour model. Tested compounds were administrated in three and six doses per schedule. […] Data from this efficacy study indicate that HDM201 and Trametinib are more efficacious when they are used in combination, compared to their efficacy when administered separately (please refer to maximal tumour growth inhibition (TGI) percentage, presented in Table 7, and compounds efficacy in single and combined administrations, shown in Figure 9).
(§3) Crl:CD-1-Foxn1^nu female mice, 4–5 weeks old, from Charles River Germany, inoculated subcutaneously with A375 cells, were used for in vivo studies. Determination of compound concentrations in plasma and A375 tumour tissue homogenates were performed with the use of quantitative LC-MS/MS system. Plasma and tissue samples were resected at the following timepoints: 1.5, 4, 8, 24 h (n = 3 per timepoint) after oral administration. Pharmacokinetic parameters AUC, Cmax, and Tmax were calculated using MS Excel 2016. Area under the concentration versus time curve was calculated using the linear trapezoidal rule.
Determination of tumour growth was performed after oral gavage of Vehicle (60% PEG 400 (v/v), 10% Cremophor RH40 (v/v), 10% EtOH (v/v) and 20% Labrafil M1944CS (v/v)), Siremadlin, Trametinib or their combination in Vehicle. The volume of the administered formulation (10 mL/kg) of the compounds was always adjusted to the mice body weight.
Tumour volume (V) was recorded with an electronic calliper 2–3 times a week and was calculated based on its length and width, using the prolate ellipsoid equation [46] (Equation (1)):V (mm^3) = d^2 × D/2(1) where d is the tumour width (mm) and D is the tumour length (mm).
Tumour growth inhibition (TGI) value was calculated using Equation (2):TGI (%) = (100 − (T/C × 100))(2) where C is the mean tumour size in control group (mm^3) and T is the mean tumour size in treated group (mm^3).

[3] = system: A375 cells; design: method as in PMID 22169769; conditions: cell count by DAPI nuclei staining, read-out: Literature IC50; cited from earlier work
[4] = Pharmacokinetics in plasma and A375 tumour tissue after single oral administration; type: in vivo, CD-1 nude mice; conditions: female, Crl:CD-1-Foxn1nu (CD-1 nude), mouse; for Cmax: n = 3; for AUC(0-t): n = 3, read-out: AUC0–24h ± SD
Procedure: Pharmacokinetic profiles were determined after single oral administration of HDM201 (100 mg/kg) and Trametinib (1 mg/kg) in vehicle formulation in CD-1 nude mice. Initial analysis of compound concentrations included plasma and A375 tumour tissue homogenates.
as §3

[5] = system: A375 cells; experiment: MTS assay (CellTiter 96 AQueous) cytotoxicity and drug interaction analysis; type: cell-based; conditions: Homo sapiens, A-375; for IC50: A375 cells, 72 h incubation, read-out: MTS IC50 ± SD
Procedure: as §1, §2

[6] = system: A375 cells; experiment: Mean of MTS and RealTime-Glo assays (cytotoxicity / drug interaction metrics); type: cell-based, human
Procedure: as §1, §2

[7] = system: A375 cells; design: method as in PMID 30135191; conditions: cell count by amount of ATP (CellTiter-Glo assay), read-out: Literature IC50; cited from earlier work
[8] = A375 tumour tissue homogenate, 1 mg/kg, Trametinib 1 mg/kg single oral, with HDM201 100 mg/kg, A375 tumour
[9] = A375 tumour tissue homogenate, 1 mg/kg, Trametinib 1 mg/kg single oral, without HDM201, A375 tumour
[10] = plasma, 1 mg/kg, Trametinib 1 mg/kg single oral, with HDM201 100 mg/kg, plasma
[11] = plasma, 1 mg/kg, Trametinib 1 mg/kg single oral, without HDM201, plasma
[12] = plasma, range stated jointly for HDM201 and Trametinib, oral, mice, sparse sampling, read-out: typical Tmax
[13] = A375 tumour tissue homogenate, 100 mg/kg, HDM201 100 mg/kg single oral, without Trametinib, A375 tumour
[14] = A375 tumour tissue homogenate, HDM201 100 mg/kg single oral, with Trametinib 1 mg/kg, A375 tumour
[15] = plasma, 100 mg/kg, HDM201 100 mg/kg single oral, without Trametinib, plasma
[16] = plasma, HDM201 100 mg/kg single oral, with Trametinib 1 mg/kg, plasma

CC(=O)Nc1cccc(-n2c(=O)n(C3CC3)c(=O)c3c(Nc4ccc(I)cc4F)n(C)c(=O)c(C)c32)c1 [Trametinib]
IC50 [1]: 0.8 ± 0.4 nM | viability at 0.04 µM ([1]; RealTime-Glo, max concentration 40 nM, last observation after 80h, read-out: % of viability at the last measurement ± SD): 14.9 ± 2.59% | Max TGI (%) ± SEM ([2]; Trametinib 0.3 mg/kg qdx6, oral): 65.47 ± 21.29% | Max TGI (%) ± SEM ([2]; Trametinib 1 mg/kg qdx6, oral): 90.05 ± 1.13% | IC50 [3]: 1 nM | Cmax [4, 8]: 0.715 ± 0.197 µM | AUC(0-t) [4, 8]: 9.66 ± 1.39 µM·h | Tmax ([4]; A375 tumour tissue homogenate, 1 mg/kg, Trametinib 1 mg/kg single oral, with HDM201 100 mg/kg, A375 tumour, n = 3, read-out: Tmax ± SD): 4 h | Cmax [4, 9]: 0.587 ± 0.0663 µM | AUC(0-t) [4, 9]: 9.13 ± 1.3 µM·h | Tmax ([4]; A375 tumour tissue homogenate, 1 mg/kg, Trametinib 1 mg/kg single oral, without HDM201, A375 tumour, n = 3, read-out: Tmax ± SD): 4 h | Cmax [4, 10]: 0.354 ± 0.106 µM | AUC(0-t) [4, 10]: 4.48 ± 1.17 µM·h | Tmax ([4]; plasma, 1 mg/kg, Trametinib 1 mg/kg single oral, with HDM201 100 mg/kg, plasma, n = 3, read-out: Tmax ± SD): 4 ± 1.44 h | Cmax [4, 11]: 0.567 ± 0.0494 µM | AUC(0-t) [4, 11]: 5.58 ± 0.567 µM·h | Tmax ([4]; plasma, 1 mg/kg, Trametinib 1 mg/kg single oral, without HDM201, plasma, n = 3, read-out: Tmax ± SD): 4 ± 1.44 h | Tmax [4, 12]: 1.5 to 4 h | IC50 ([5]; n = 4): 0.58 ± 0.03 nM | viability at 0.004 µM ([5]; MTS, max concentration 4 nM, last observation after 72h, n = 4, read-out: % of viability at the last measurement ± SD): 13.3 ± 2.6% | % of viability at the last measurement ± SD ([6]; Trametinib): 14.097 ± 2.594%

COc1ncc(-c2nc3c(n2C(C)C)[C@H](c2ccc(Cl)cc2)N(c2cc(Cl)cn(C)c2=O)C3=O)c(OC)n1 [Siremadlin (HDM201), Siremadlin]
IC50 [1]: 260 ± 170 nM | viability at 4 µM ([1]; RealTime-Glo, max concentration 4000 nM, last observation after 80h, read-out: % of viability at the last measurement ± SD): 21 ± 6.86% | Max TGI (%) ± SEM ([2]; HDM201 40 mg/kg qdx3, oral): 33.39 ± 13.90% | Max TGI (%) ± SEM ([2]; HDM201 100 mg/kg qdx3, oral): 76.94 ± 5.38% | Cmax [4, 13]: 16.2 µM | AUC(0-t) [4, 13]: 179 µM·h | Tmax ([4]; A375 tumour tissue homogenate, 100 mg/kg, HDM201 100 mg/kg single oral, without Trametinib, A375 tumour, n = 3, read-out: Tmax ± SD): 1.5 ± 1.44 h | Cmax [4, 14]: 28.6 µM | AUC(0-t) [4, 14]: 219 µM·h | Tmax ([4]; A375 tumour tissue homogenate, HDM201 100 mg/kg single oral, with Trametinib 1 mg/kg, A375 tumour, n = 3, read-out: Tmax ± SD): 1.5 ± 1.44 h | Cmax [4, 15]: 9.78 ± 2.98 µM | AUC(0-t) [4, 15]: 95.1 µM·h | Tmax ([4]; plasma, 100 mg/kg, HDM201 100 mg/kg single oral, without Trametinib, plasma, n = 3, read-out: Tmax ± SD): 1.5 ± 1.44 h | Cmax [4, 16]: 14.6 µM | AUC(0-t) [4, 16]: 108 µM·h | Tmax ([4]; plasma, HDM201 100 mg/kg single oral, with Trametinib 1 mg/kg, plasma, n = 3, read-out: Tmax ± SD): 1.5 ± 1.44 h | Tmax [4, 12]: 1.5 to 4 h | IC50 ([5]; n = 4): 65.7 ± 4.7 nM | viability at 0.2 µM ([5]; MTS, max concentration 200 nM, last observation after 72h, n = 4 (resistant population estimate), read-out: % of viability at the last measurement ± SD): 21.9 ± 5.92% | % of viability at the last measurement ± SD ([6]; Siremadlin): 21.445 ± 6.389% | IC50 [7]: 764 nM
